According to US7745446B2, “Pyrazolo[1,5-c]pyrimidines” (Bayer Schering Pharma Aktiengesellschaft, priority 2004, dated 2010):
pIC50: −log10 of the molar value.

Key:
GST-ΔPH-Akt1 = target: T1, GST-ΔPH-Akt1 (Homo sapiens, UniProt P31749); experiment: Biochemical ΔPH Akt1 assay (flashplate, 33P incorporation into histone 2B); details: 100 nM ATP, histone 2B substrate; read-out: ΔPHAkt1 inhibition: IC50
T1 construct: named GST-deltaPH-Akt1; 107-480aa; cloned in the pAcGl vector; GST (N); made in house; host or cells: SF9 insect cells (baculovirus vector pAcG1), co-expressed with PDK1
From the text: For the biochemical assay ΔPHAkt1 is used devoid of its PH domain as a GST fusion protein (named GST-deltaPH-Akt1; 107-480aa; cloned in the pAcGl vector (BD Biosciences Pharmingen)), co-expressed with PDK1 in SF9 insect cells. The protein is purified using glutathion-affinity chromatography by standard protocols.
In order to study the inhibition of Akt according to the invention, a flashplate-based assay has been developed.
The Akt1 assay is a biochemical assay using Akt1 devoid of its PH domain and co-expressed with PDK1 in insect cells. The GST-ΔPH-Akt1 assay is run in 96 well plates by incubating 100 ng/well GST-ΔPH-Akt1, 100 ng/well histone 2B (Roche, #223514) as substrate, 10 μl of compound of invention (test compounds were dissolved as 10 mM solutions in dimethylsulfoxide (DMSO) and subsequently diluted) and 100 nM ATP (including ^33P-ATP) in 100 μl of reaction buffer ([…], pH7,5; 3 mM MgCl2; 3 mM MnCl2; 3 μM Na-Orthovanadat; 1 mM DTT; 1 μg/ml PEG8000) for 80 minutes at 30° C. The reactions are terminated by adding 100 μl stopping buffer (2% H3PO4 for 5 minutes) and are washed 3 times by using washing buffer (0.9% NaCl). Relying on the incorporation of ^33P into the protein substrate histone 2B, the detection is based on the adhesion of the phosphorylated protein to the surface of scintillator-coated flash plates (NEN, USA; #SMP-200). This phosphorylation is measured by counting the plate for 60 sec. using a plate reader (Wallac Microbeta; Perkin Elmer, USA).

MDA-MB-468 cells = experiment: Cellular proliferation/cytotoxicity assay (Alamar Blue), MDA-MB-468; details: Homo sapiens, MDA-MB-468, 48 h, read-out: Anti-proliferative/cytotoxic activity: IC50 MDA468
Procedure: The anti-proliferative activity of the compounds as described herein, is evaluated using MCF7 and MDA-MB-468 (ATCC HTB-22 and HTB-132) cell lines and the Alamar Blue (Resazurin) cell viability assay (O'Brien et al. Eur J Biochem 267, 5421-5426, 2000). Resazurin is reduced to the fluorescent resorufin by cellular dehydrogenase activity, correlating with viable, proliferating cells. Test compounds are dissolved as 10 mM solutions in DMSO and subsequently diluted. MCF7 or MDA-MB-434 cells were seeded into 96 well flat bottom plates at a density of 10000 cells/well (MCF7) or 5000 cells/well (MDA-MB-468) in a volume of 200 μl/well. 24 hours after seeding, 1 μl each of the compound dilutions are added into each well of the 96 well plates. Each compound dilution is tested as at least as duplicates. Wells containing untreated control cells were filled with 200 μl DMEM containing 0.5% v:v DMSO. The cells are then incubated with the substances for 48 hours at 37° C. in a humidified atmosphere containing 5% carbon dioxide. To determine cell viability, 20 μl of a Resazurin solution (Sigma; 90 mg/l) are added. After 4 hours incubation at 37° C. the fluorescence is measured at an extinction of 544 nm and an emission of 590 nm (Wallac Victor2; Perkin Elmer, USA). For the calculation of the cell viability the emission value from untreated cells is set as 100% viability and the emission rates of treated cells are set in relation to the values of untreated cells. Viabilities are expressed as % values. The corresponding IC50 values of the compounds for cytotoxic activity are determined from the concentration-effect curves by means of non-linear regression. The analysis of the data is performed using a biostatistical program (GraphPad Prism, USA).

MCF7 cells = experiment: Cellular proliferation/cytotoxicity assay (Alamar Blue), MCF7; details: Homo sapiens, MCF7, 48 h, read-out: Anti-proliferative/cytotoxic activity: IC50 MCF7
PKA = target: T2, PKA (Homo sapiens, UniProt P17612); experiment: Biochemical PKA assay (flashplate); details: 100 nM ATP; read-out: PKA inhibition: −log IC50 (converted)
T2 construct: His; purchased PanVera, USA #R3791; host or cells: E. coli
Procedure: For the biochemical PKA assay the catalytic subunit of PKA is expressed in E. coli as a His-tagged human recombinant protein and purified accordingly (PanVera, USA; #R3791).
In order to study the kinase inhibition activity of the compounds according to the invention, a flashplate-based assay has been developed for the serine/threonine kinase, PKA. The assay is run in 96 well plates by incubating 1 ng/well His-PKA (PanVera, USA; #R3791), 0.5 μM/well PKA peptide (#12-394; Upstate, USA) as substrate, 10 μl of compound of invention (test compounds were dissolved as 10 mM solutions in dimethylsulfoxide (DMSO) and subsequently diluted) and 100 nM ATP (including ^33P-ATP) in 100 μl of reaction buffer ([…], pH7,5; 3 mM MgCl2; 3 mM MnCl2; 3 μM Na-Orthovanadat; 1 mM DTT) for 80 minutes at 22° C. The reactions are stopped by adding 100 μl stopping buffer (2% H3PO4 for 5 minutes) and are washed 3 times by using washing buffer (200 μl 1×PBS). Relying on the incorporation of ^33P into the peptide substrate, the detection is based on the adhesion of the phosphorylated peptide to the surface of scintillator-coated Flash plates (Perkin Elmer, USA; #SMP-103). This phosphorylation is measured by counting the plate for 60 sec. using a plate reader (Wallac Microbeta; Perkin Elmer, USA). By using this method the IC50 of the PKA inhibition is determined.

T1 sequence (P31749 107-480, stated change not applied): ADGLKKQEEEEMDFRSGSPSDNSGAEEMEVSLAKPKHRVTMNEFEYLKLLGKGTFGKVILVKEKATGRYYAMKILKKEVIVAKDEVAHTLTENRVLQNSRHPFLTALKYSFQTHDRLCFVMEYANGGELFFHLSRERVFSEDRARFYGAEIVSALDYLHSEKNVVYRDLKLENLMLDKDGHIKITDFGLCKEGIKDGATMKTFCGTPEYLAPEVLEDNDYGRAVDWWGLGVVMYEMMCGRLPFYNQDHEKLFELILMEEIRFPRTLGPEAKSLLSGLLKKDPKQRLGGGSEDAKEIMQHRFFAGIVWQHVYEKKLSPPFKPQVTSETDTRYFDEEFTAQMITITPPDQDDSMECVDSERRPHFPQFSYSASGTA

SMILES	pIC50 (GST-ΔPH-Akt1)	pIC50 (MDA-MB-468 cells)	pIC50 (MCF7 cells)	IC50 (PKA) [µM]
O=C(Nc1ccc(Nc2nc(-c3cccc4c3oc3ccccc34)cc3ccnn23)cc1)c1ccc2c(c1)CNCC2 [Example 35, 1,2,3,4-Tetrahydro-isoquinoline-7-carboxylic acid [4-(5-dibenzofuran-4-yl-pyrazolo[1,5-c]pyrimidin-7-ylamino)-phenyl]-amide]	≥ 5.76	≥ 4.87	≥ 4.77	> 100
NCc1ccc(C(=O)Nc2ccc(Nc3nc(-c4cccc5c4oc4ccccc45)cc4ccnn34)cc2)o1 [Example 38, 5-Aminomethyl-furan-2-carboxylic acid [4-(5-dibenzofuran-4-yl-pyrazolo[1,5-c]pyrimidin-7-ylamino)-phenyl]-amide]	≥ 5.76	≥ 4.87	≥ 4.77	> 100
CC(C)(N)c1ccc(C(=O)Nc2ccc(Nc3nc(-c4cccc5c4oc4ccccc45)cc4ccnn34)cc2)cc1 [Example 39, 4-(1-Amino-1-methyl-ethyl)-N-[4-(5-dibenzofuran-4-yl-pyrazolo[1,5-c]pyrimidin-7-ylamino)-phenyl]-benzamide]	≥ 5.76	≥ 4.87	≥ 4.77	6.31 to 100
NCc1ccc(C(=O)Nc2ccc(Nc3nc(-c4ccc5cc(OCc6ccccc6)ccc5c4)cc4ccnn34)cc2)cc1 [Example 42, 4-Aminomethyl-N-{4-[5-(6-benzyloxy-naphthalen-2-yl)-pyrazolo[1,5-c]pyrimidin-7-ylamino]-phenyl}-benzamide]	≥ 5.76	≥ 4.87	≥ 4.77	> 100
CCOc1ccc2cc(-c3cc4ccnn4c(Nc4ccc(NC(=O)c5ccc(CN)cc5)cc4)n3)ccc2c1 [Example 46, 4-Aminomethyl-N-{4-[5-(6-ethoxy-naphthalen-2-yl)-pyrazolo[1,5-c]pyrimidin-7-ylamino]-phenyl}-benzamide]	≥ 5.76	≥ 4.87	≥ 4.77	> 100
COCCOc1ccc2cc(-c3cc4ccnn4c(Nc4ccc(NC(=O)c5ccc(CN)cc5)cc4)n3)ccc2c1 [Example 47, 4-Aminomethyl-N-(4-{5-[6-(2-methoxy-ethoxy)-naphthalen-2-yl]-pyrazolo[1,5-c]pyrimidin-7-ylamino}-phenyl)-benzamide]	≥ 5.76	≥ 4.87	≥ 4.77	> 100
NCc1cncc(C(=O)Nc2ccc(Nc3nc(-c4cccc5c4oc4ccccc45)cc4ccnn34)cc2)c1 [Example 52, 5-Aminomethyl-N-[4-(5-dibenzofuran-4-yl-pyrazolo[1,5-c]pyrimidin-7-ylamino)-phenyl]-nicotinamide]	≥ 5.76	≥ 4.87	≥ 4.77	> 100
NCc1ccnc(C(=O)Nc2ccc(Nc3nc(-c4cccc5c4oc4ccccc45)cc4ccnn34)cc2)c1 [Example 53, 4-Aminomethyl-pyridine-2-carboxylic acid [4-(5-dibenzofuran-4-yl-pyrazolo[1,5-c]pyrimidin-7-ylamino)-phenyl]-amide]	≥ 5.76	≥ 4.87	≥ 4.77	> 100
COc1ccc(-c2ccc(-c3cc4ccnn4c(Nc4ccc(NC(=O)c5ccc(CN)cc5)cc4)n3)cc2)cc1 [Example 55, 4-Aminomethyl-N-{4-[5-(4′-methoxy-biphenyl-4-yl)-pyrazolo[1,5-c]pyrimidin-7-ylamino]-phenyl}-benzamide]	≥ 5.76	≥ 4.87	≥ 4.77	> 100
COc1ccccc1-c1ccc(-c2cc3ccnn3c(Nc3ccc(NC(=O)c4ccc(CN)cc4)cc3)n2)cc1 [Example 56, 4-Aminomethyl-N-{4-[5-(2′-methoxy-biphenyl-4-yl)-pyrazolo[1,5-c]pyrimidin-7-ylamino]-phenyl}-benzamide]	≥ 5.76	≥ 4.87	≥ 4.77	6.31 to 100
O=C(Nc1ccc(Nc2nc(-c3cccc4c3oc3ccccc34)cc3ccnn23)cc1)c1ccc(CNCCO)cc1 [Example 57, N-[4-(5-Dibenzofuran-4-yl-pyrazolo[1,5-c]pyrimidin-7-ylamino)-phenyl]-4-[(2-hydroxy-ethylamino)-methyl]-benzamide]	≥ 5.76	≥ 4.87	≥ 4.77	> 100
O=C(Nc1ccc(Nc2nc(-c3cccc4c3oc3ccccc34)cc3ccnn23)cc1)c1ccc2c(c1)CCNC2 [Example 58, 1,2,3,4-Tetrahydro-isoquinoline-6-carboxylic acid [4-(5-dibenzofuran-4-yl-pyrazolo[1,5-c]pyrimidin-7-ylamino)-phenyl]-amide]	≥ 5.76	≥ 4.87	≥ 4.77	> 100
NCc1ccc(C(=O)Nc2ccc(Nc3nc(-c4cccc5c4oc4ccccc45)cc4ccnn34)cc2)nc1 [Example 65, 5-Aminomethyl-pyridine-2-carboxylic acid [4-(5-dibenzofuran-4-yl-pyrazolo[1,5-c]pyrimidin-7-ylamino)-phenyl]-amide]	≥ 5.76	≥ 4.87	≥ 4.77	6.31 to 100
NCc1ccc(C(=O)Nc2ccc(Nc3nc(-c4ccc(-c5ccc(F)cc5)cc4)cc4ccnn34)cc2)cc1 [Example 67, 4-Aminomethyl-N-{4-[5-(4′-fluoro-biphenyl-4-yl)-pyrazolo[1,5-c]pyrimidin-7-ylamino]-phenyl}-benzamide]	≥ 5.76	≥ 4.87	≥ 4.77	6.31 to 100
NCc1ccc(C(=O)Nc2ccc(Nc3nc(-c4ccc(I)cc4)cc4ccnn34)cc2)cc1 [Example 68, 4-Aminomethyl-N-{4-[5-(4-iodo-phenyl)-pyrazolo[1,5-c]pyrimidin-7-ylamino]-phenyl}-benzamide]	≥ 5.76	≥ 4.87	≥ 4.77	6.31 to 100
NCc1ccc(C(=O)Nc2ccc(Nc3nc(-c4ccc(-c5ccccc5F)cc4)cc4ccnn34)cc2)cc1 [Example 69, 4-Aminomethyl-N-{4-[5-(2′-fluoro-biphenyl-4-yl)-pyrazolo[1,5-c]pyrimidin-7-ylamino]-phenyl}-benzamide]	≥ 5.76	≥ 4.87	≥ 4.77	6.31 to 100
NCc1ccc(C(=O)Nc2ccc(Nc3nc(-c4ccc(-c5cccc(F)c5)cc4)cc4ccnn34)cc2)cc1 [Example 70, 4-Aminomethyl-N-{4-[5-(3′-fluoro-biphenyl-4-yl)-pyrazolo[1,5-c]pyrimidin-7-ylamino]-phenyl}-benzamide]	≥ 5.76	≥ 4.87	≥ 4.77	6.31 to 100
